According to US7897602B2, “Indolinone compounds as kinase inhibitors” (Development Center for Biotechnology, priority 2009, dated 2011):

How the values were obtained:
Type in all cases: biochemical
[1] = biological target: T1, Aurora A kinase (Homo sapiens, UniProt O14965); experiment: Aurora A kinase assay ([γ-33P]ATP, CHOCKtide substrate); settings: 1.0 μM test compound
T1 construct: purchased Upstate
T1 sequence (O14965 1-403): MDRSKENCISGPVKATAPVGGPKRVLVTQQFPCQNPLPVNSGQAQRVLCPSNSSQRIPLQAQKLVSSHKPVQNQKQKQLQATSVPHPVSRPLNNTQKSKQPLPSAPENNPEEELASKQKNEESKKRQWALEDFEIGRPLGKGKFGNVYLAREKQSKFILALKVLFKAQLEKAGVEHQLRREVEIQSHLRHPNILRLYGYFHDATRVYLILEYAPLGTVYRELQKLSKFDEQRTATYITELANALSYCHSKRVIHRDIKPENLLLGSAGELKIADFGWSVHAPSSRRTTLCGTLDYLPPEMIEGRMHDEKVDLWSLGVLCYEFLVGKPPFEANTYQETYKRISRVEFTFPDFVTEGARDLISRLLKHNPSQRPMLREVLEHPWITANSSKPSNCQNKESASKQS
Procedure, shortened: (§1)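 Recombinant Aurora A (1 ng) or Aurora B (2.5 ng) incubated with test compound, CHOCKtide (1 μg) and [γ-33P]ATP/ATP at 10 μM (Aurora A) or 40 μM (Aurora B), 30 min at 33 °C. Stopped with phosphoric acid; filter-bound 33P counted; IC50 = half-maximal inhibition.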

[2] = biological target: T2, Aurora B kinase (Homo sapiens, UniProt Q96GD4); experiment: Aurora B kinase assay ([γ-33P]ATP, CHOCKtide substrate); settings: 1.0 μM test compound
T2 construct: purchased Cell signaling
T2 sequence (Q96GD4 whole entry): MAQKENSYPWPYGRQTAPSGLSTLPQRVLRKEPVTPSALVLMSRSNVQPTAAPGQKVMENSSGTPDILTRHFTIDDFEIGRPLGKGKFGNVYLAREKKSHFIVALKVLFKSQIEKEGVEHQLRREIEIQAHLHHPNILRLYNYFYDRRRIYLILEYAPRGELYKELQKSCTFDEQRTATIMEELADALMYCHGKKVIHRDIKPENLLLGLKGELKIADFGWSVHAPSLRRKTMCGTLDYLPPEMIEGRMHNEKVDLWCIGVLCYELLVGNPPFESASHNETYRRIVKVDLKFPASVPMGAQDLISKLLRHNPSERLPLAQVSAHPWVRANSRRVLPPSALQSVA
Procedure, shortened: as §1

[3] = biological target: T3, c-Met kinase (Homo sapiens, UniProt P08581); experiment: c-Met kinase assay (33P incorporation into Poly(Glu-Tyr)); settings: 500 nM test compound
T3 construct: recombinant N-terminal 6×His-tagged c-Met kinase domain construct expressed from baculovirus; 6xHis (N); made in house
T3 sequence (P08581 1078-1345 limits assumed): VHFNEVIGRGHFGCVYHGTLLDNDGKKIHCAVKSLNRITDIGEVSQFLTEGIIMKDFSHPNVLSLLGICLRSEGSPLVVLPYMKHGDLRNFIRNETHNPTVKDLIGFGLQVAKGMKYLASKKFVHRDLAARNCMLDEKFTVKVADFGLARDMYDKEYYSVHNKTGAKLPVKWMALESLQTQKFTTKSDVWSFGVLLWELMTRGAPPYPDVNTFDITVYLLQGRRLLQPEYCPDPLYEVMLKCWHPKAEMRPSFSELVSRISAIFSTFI
Procedure, shortened: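 Recombinant N-terminal 6×His-tagged c-Met kinase domain (baculovirus-expressed, 5 ng) acted on Poly(Glu-Tyr) 4:1 with 100 μM ATP plus [33P]-γ-ATP in MOPS pH 7.0 buffer, 30 min at 30° C. Compound was at 500 nM. Filter-retained radioactivity was compared with the DMSO control to give percent inhibition.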

[4] = biological target: T4, VEGFR2 kinase (Homo sapiens, UniProt P35968); experiment: VEGFR2 kinase assay (33P incorporation into Poly(Glu-Tyr)); settings: 500 nM test compound; read-out: Inhibition at 500 nM (%) VEGFr-2
T4 construct: recombinant N-terminal 6×His-tagged VEGFR2 kinase domain construct expressed by baculovirus; 6xHis (N); made in house
T4 sequence (P35968 834-1162 limits assumed): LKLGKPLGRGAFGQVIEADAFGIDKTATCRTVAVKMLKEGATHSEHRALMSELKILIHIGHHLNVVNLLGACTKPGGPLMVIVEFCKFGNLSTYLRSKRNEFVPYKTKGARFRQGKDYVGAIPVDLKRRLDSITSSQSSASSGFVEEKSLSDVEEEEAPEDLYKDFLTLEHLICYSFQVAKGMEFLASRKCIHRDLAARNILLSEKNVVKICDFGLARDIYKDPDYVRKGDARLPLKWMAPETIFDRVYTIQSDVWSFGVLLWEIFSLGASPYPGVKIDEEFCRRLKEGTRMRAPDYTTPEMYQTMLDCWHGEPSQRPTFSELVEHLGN
Procedure, shortened: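 Recombinant baculovirus-expressed N-terminal His6-tagged VEGFR2 kinase domain (6.25 ng) phosphorylated poly(Glu-Tyr) 4:1 with 100 μM ATP plus [33P]-γ-ATP in MOPS pH 7.0, 30 °C, 30 min. Test compound was at 500 nM (4% DMSO). Filter-retained radioactivity relative to DMSO control gave % inhibition.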

Row | SMILES | inhibition at 1 µM [1] [%] | inhibition at 1 µM [2] [%] | inhibition at 0.5 µM [3] [%] | inhibition at 0.5 µM [4] [%]
1 | COc1ccc(C(=O)Nc2ccc3c(c2)/C(=C/c2[nH]c4c(c2CCC(=O)O)C(=O)CCC4)C(=O)N3)cc1 [DCB-70143, (Z)-3-(2-((5-(4-methoxybenzamido)-2-oxoindolin-3-ylidene)methyl)-4-oxo-4,5,6,7-tetrahydro-1H-indol-3-yl)propanoic acid] | 31.8 | 9.1 | -8.2 | 38.1
2 | CCOC(=O)CCc1c(/C=C2\C(=O)Nc3ccc(NC(=O)c4ccc(OC)cc4)cc32)[nH]c2c1C(=O)CCC2 [DCB-70141, (Z)-ethyl 3-(2-((5-(4-methoxybenzamido)-2-oxoindolin-3-ylidene)methyl)-4-oxo-4,5,6,7-tetrahydro-1H-indol-3-yl)propanoate] | 9.8 | -23 | -1.2 | 28.9
3 | O=C(O)CCc1c(/C=C2\C(=O)Nc3ccc(S(=O)(=O)Nc4ccc(F)c(Cl)c4)cc32)[nH]c2c1C(=O)CCCC2 [DCB-70149, (Z)-3-(2-((5-(N-(3-chloro-4-fluorophenyl)sulfamoyl)-2-oxoindolin-3-ylidene)methyl)-4-oxo-1,4,5,6,7,8-hexahydrocyclohepta[b]pyrrol-3-yl)propanoic acid] | 77.5 | 18.7 | 8.4 | 57.5
4 | CN(c1cccc(Cl)c1)S(=O)(=O)c1ccc2c(c1)/C(=C/c1[nH]c3c(c1CCC(=O)O)C(=O)CCCC3)C(=O)N2 [DCB-70148, (Z)-3-(2-((5-(N-(3-chlorophenyl)-N-methylsulfamoyl)-2-oxoindolin-3-ylidene)methyl)-4-oxo-1,4,5,6,7,8-hexahydrocyclohepta[b]pyrrol-3-yl)propanoic acid] | 80.7 | 30.2 | 74.9 | 67.6
